For orientation: Km means the substrate concentration at which the rate is half of its maximum.

The target of one data set is T1, rLac-HhC125 (Halalkalibacterium halodurans, UniProt Q9KB49).
T1 construct: gene BH2082
Nature of the data set: biochemical. The following applies: read-out: Residual activity (%) ± SD (0 min).

Substrate in the data set “purified protein”: COc1cc(C=NN=Cc2cc(OC)c(O)c(OC)c2)cc(OC)c1O
Nature of the data set: purified protein. The class given is biochemical, Halalkalibacterium halodurans. The following applies: 100 mM Tris-HCl pH 8, 2 mM CuSO4, enzyme pre-treated 50 °C 20 min, partially purified enzyme.

`NC(=S)Nc1ccccc1` [Phenylthiourea]: the remaining activity at 1000 µM at rLac-HhC125 came to 3.9 ± 3.8%.

B1: rLac-HhC125 (Halalkalibacterium halodurans C-125) (protein)
chain: DDHSEMDHGNNQQDEQNEGTFEDGKKVFNLEVTETHWMFNDEVMMDAWTYNGTLPGQEIRVQEGDEVVINVKNSLNVPTALHLHGFPVPNEMDGVPGVTQNAIMPGEEFTYEYQANVPGTYWYHSHQDGATQVDRGLYGVFIVEPVDPESYDTDVAIVIDEFASMGMGMGMDHSTMDHGDMEHDGNDDMSHSEMMNEMYDTMVINGKADPQIESINVVEGNRVKLRFVNAGLFTQVVSIPEHSFKITHYDGQPVNEPDVLQDTAFRIAPAERYDLEIIMDNPGAWGIQVFAEENQERLQALIPLVYEEYEDEELQTVDSISSFFDLTTYGIPKELDIGDITKEYDMLLGSDDGGDTFTINGKKFPNHEIYDVEEGDMVKFTIINDTDFDHPMHLHGDFFHVISKGGKAIQGSPVLKDTLNVRPGETYEIVFEAKNPGNWMFHCHEFHHASGGMVAEIHYEGFELPFTPDPNIPNMPE
notes: native signal peptide removed (forward primer encodes MDDHSEMD...), pET28-a(+) BamHI/HindIII, E. coli BL21(DE3); partially purified by SEC; theoretical monomer 54 kDa; monomer and possibly dimer
Consider B1, for which the Km in the data set “purified protein” turned out to be 2.48 µM.

The record behind these values is PMC11550293, “Biochemical characterization of a recombinant laccase from Halalkalibacterium halodurans C-125 and its application in the biotransformation of organic compounds” (Biotechnology Letters, 2024).
